# Measured values published in patent publication US6204282A, “Benzimidazole compounds that are vitronectin receptor antagonists” (Schering Corporation, priority 1999, dated 2001).
# Target: αllbβ3 receptor (Homo sapiens, UniProt P05106+P08514)
# Test: similar competitive assay with purified αllbβ3 receptor and 125I-echistatin (specificity index versus αvβ3)
# Type: binding
# Settings: IC50 αllbβ3 / IC50 αvβ3
# Source text: The specificity index, which is a measure of the relative binding affinity for αvβ3 versus αllbβ3, may be determined by dividing the IC50 value for αllbβ3by the IC50 value for αvβ3.
# Sequence of αllbβ3 receptor (P08514 32-1039): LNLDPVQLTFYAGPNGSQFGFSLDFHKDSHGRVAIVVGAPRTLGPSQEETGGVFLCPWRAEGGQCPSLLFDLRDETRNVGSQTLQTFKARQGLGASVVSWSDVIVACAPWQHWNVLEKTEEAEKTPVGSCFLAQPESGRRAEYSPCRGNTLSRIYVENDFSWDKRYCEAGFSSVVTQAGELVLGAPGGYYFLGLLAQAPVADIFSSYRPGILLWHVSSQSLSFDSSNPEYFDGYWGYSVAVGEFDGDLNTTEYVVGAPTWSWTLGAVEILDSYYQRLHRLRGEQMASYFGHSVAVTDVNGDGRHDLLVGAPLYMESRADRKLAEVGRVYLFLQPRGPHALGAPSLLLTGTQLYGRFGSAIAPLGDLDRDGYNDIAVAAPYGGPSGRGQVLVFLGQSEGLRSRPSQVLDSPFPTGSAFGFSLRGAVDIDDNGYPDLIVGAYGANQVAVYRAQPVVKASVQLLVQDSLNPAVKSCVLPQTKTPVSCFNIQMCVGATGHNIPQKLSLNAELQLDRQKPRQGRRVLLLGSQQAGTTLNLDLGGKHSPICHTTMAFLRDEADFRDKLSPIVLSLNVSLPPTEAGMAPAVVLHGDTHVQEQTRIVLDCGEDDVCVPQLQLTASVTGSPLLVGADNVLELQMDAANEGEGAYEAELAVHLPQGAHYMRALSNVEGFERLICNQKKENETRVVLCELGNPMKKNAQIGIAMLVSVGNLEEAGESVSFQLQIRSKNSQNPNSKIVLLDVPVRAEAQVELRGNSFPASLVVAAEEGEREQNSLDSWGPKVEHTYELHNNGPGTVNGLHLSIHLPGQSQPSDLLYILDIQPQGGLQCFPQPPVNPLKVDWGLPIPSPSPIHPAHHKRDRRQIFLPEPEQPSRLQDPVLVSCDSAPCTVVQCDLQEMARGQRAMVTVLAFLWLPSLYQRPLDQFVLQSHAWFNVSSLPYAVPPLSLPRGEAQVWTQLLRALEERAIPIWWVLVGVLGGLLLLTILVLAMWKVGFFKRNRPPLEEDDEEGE
# Sequence of αllbβ3 receptor (P05106 27-788): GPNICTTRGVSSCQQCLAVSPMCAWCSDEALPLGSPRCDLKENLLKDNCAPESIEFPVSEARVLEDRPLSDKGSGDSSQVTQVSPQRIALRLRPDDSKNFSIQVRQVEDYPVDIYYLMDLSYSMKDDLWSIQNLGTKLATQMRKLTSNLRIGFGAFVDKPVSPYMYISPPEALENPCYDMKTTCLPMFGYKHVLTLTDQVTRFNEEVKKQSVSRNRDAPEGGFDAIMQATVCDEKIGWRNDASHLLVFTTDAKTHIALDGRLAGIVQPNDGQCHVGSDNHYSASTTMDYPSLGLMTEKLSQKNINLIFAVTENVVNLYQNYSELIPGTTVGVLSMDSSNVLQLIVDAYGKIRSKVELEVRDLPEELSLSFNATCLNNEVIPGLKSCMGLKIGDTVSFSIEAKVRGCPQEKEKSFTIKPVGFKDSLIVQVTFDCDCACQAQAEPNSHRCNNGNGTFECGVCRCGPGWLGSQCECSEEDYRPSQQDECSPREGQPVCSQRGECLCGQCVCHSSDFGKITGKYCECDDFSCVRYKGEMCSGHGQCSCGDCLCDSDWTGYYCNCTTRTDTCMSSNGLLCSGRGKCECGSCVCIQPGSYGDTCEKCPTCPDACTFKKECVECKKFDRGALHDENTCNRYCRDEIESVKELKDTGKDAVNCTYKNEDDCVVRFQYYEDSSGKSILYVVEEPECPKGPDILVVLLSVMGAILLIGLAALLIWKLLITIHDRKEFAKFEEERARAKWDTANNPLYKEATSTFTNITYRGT
row,Compound,SPECIFICITY αIIb β3/αvβ3 (specificity index)
1,CC(=O)N(Cc1ccc(C(=O)NC[C@H](NC(=O)OCc2ccccc2)C(=O)O)cc1)C(C)c1nc2ccccc2[nH]1 (some centres unmarked) [Example 5-76],6.7
2,CCCCOC(=O)N[C@@H](CNC(=O)c1ccc(CN(Cc2nc3ccccc3[nH]2)C(=O)NC(C)C)cc1)C(=O)O [Example 5-84],712
3,COc1ccc(OC(=O)N(Cc2ccc(C(=O)NC[C@H](NC(=O)OCc3ccccc3)C(=O)O)cc2)Cc2nc3ccccc3[nH]2)cc1 [Example 5-21],41
4,CCCCOC(=O)N[C@@H](CNC(=O)c1ccc(CN(Cc2nc3ccccc3[nH]2)C(=O)Nc2ccc(F)cc2)cc1)C(=O)O [Example 5-88],1657
5,CC(C)(C)OC(=O)N[C@@H](CNC(=O)c1ccc(CNCc2nc3ccccc3[nH]2)cc1)C(=O)O [Example 5-60],90
6,CC(NCc1ccc(C(=O)NC[C@H](NC(=O)OCc2ccccc2)C(=O)O)cc1)c1nc2ccccc2[nH]1 (some centres unmarked) [Example 5-75],10.2
7,O=C(NC(CNC(=O)c1ccc(CNCCc2nc3ccccc3[nH]2)cc1)C(=O)O)OCc1ccccc1 (centres unmarked) [Example 5-70],0.2
8,CC(=O)N(Cc1ccc(C(=O)NC(CC(=O)O)c2ccccc2)cc1)Cc1nc2ccccc2[nH]1 (centres unmarked) [Example 5-66],0.4
9,COCC(=O)N(Cc1ccc(C(=O)NC[C@H](NS(=O)(=O)c2ccccc2)C(=O)O)cc1)Cc1nc2ccccc2[nH]1 [Example 5-80],11
10,CCOC(=O)[C@H](CC(C)C)NC(=O)N(Cc1ccc(C(=O)NC[C@H](NC(=O)OCc2ccccc2)C(=O)O)cc1)Cc1nc2ccccc2[nH]1 [Example 5-53],483
11,CCCCOC(=O)N[C@@H](CNC(=O)c1ccc(CN(Cc2nc3ccccc3[nH]2)C(=O)NC(C)(C)C)cc1)C(=O)O [Example 5-85],1223
12,Cn1c(CN(Cc2ccc(C(=O)NC[C@H](NC(=O)OCc3ccccc3)C(=O)O)cc2)C(=O)NC2CCCCC2)nc2ccccc21 [Example 5-92],174
13,CCCCOC(=O)N[C@@H](CNC(=O)c1ccc(CN(Cc2nc3ccccc3[nH]2)C(=O)N[C@@H](CCSC)C(=O)OCC)cc1)C(=O)O [Example 5-87],1569
14,CCCCOC(=O)N[C@@H](CNC(=O)c1ccc(CN(Cc2nc3ccccc3[nH]2)C(=O)NC2CCCCC2)cc1)C(=O)O [Example 5-82],1259
15,O=C(NC[C@H](NS(=O)(=O)c1ccccc1)C(=O)O)c1ccc(CN(Cc2nc3ccccc3[nH]2)C(=O)NC2CCCCC2)cc1 [Example 5-81],8.0
16,O=C(NC(CNC(=O)c1ccc(CN(CCc2nc3ccccc3[nH]2)C(=O)CCC2CCCC2)cc1)C(=O)O)OCc1ccccc1 (centres unmarked) [Example 5-74],0.6
17,CC(=O)N(Cc1ccc(C(=O)NC[C@H](NC(=O)OC(C)(C)C)C(=O)O)cc1)Cc1nc2ccccc2[nH]1 [Example 5-61],324
18,CC(C)NC(=O)N(Cc1ccc(C(=O)NC[C@H](NC(=O)OCc2ccccc2)C(=O)O)cc1)Cc1nc2ccccc2n1C [Example 5-93],124

# Now from value to compound:
row,SPECIFICITY αIIb β3/αvβ3 (specificity index),Compound
1,0.4,O=C(O)CC(NC(=O)c1ccc(CN(Cc2nc3ccccc3[nH]2)C(=O)CCc2ccccc2)cc1)c1ccccc1 (centres unmarked) [Example 5-68]
2,80,O=C(N[C@@H](CNC(=O)c1ccc(CN(Cc2nc3ccccc3[nH]2)C(=S)NCCc2ccccc2)cc1)C(=O)O)OCc1ccccc1 [Example 5-31]
3,240,O=C(N[C@@H](CNC(=O)c1ccc(CN(Cc2nc3ccccc3[nH]2)C(=O)Nc2ccc(Cl)cc2)cc1)C(=O)O)OCc1ccccc1 [Example 5-35]
4,1333,"CCOC(=O)CNC(=O)N(Cc1ccc(C(=O)NC[C@H](NC(=O)OCc2ccccc2)C(=O)O)cc1)Cc1nc2ccccc2[nH]1 [Example 5-45, N^3-[4-[(benzimidazol-2-yl)methyl][[(ethoxycarbonylmethyl)amino]-carbonyl]aminomethylbenzoyl]-N^2 -Cbz-L-2,3-diaminopropionic acid]"
5,129,CC(NC(=O)N(Cc1ccc(C(=O)NC[C@H](NC(=O)OCc2ccccc2)C(=O)O)cc1)Cc1nc2ccccc2[nH]1)c1cccc2ccccc12 (some centres unmarked) [Example 5-36]
6,22,CSCC(=O)N(Cc1ccc(C(=O)NC[C@H](NC(=O)OCc2ccccc2)C(=O)O)cc1)Cc1nc2ccccc2[nH]1 [Example 5-23]
7,528,"O=C(O)CNC(=O)N(Cc1ccc(C(=O)NC[C@H](NC(=O)OCc2ccccc2)C(=O)O)cc1)Cc1nc2ccccc2[nH]1 [Example 5-96, N^3-[4-[(Benzimidazol-2-yl)methyl][[(carboxymethyl)amino]carbonyl]aminomethylbenzoyl]-N^2 -Cbz-L-2,3-diaminopropionic acid]"
8,585,CCNC(=O)N(Cc1ccc(C(=O)NC[C@H](NC(=O)OCc2ccccc2)C(=O)O)cc1)Cc1nc2ccccc2[nH]1 [Example 5-43]
9,34,O=C(N[C@@H](CNC(=O)c1ccc(CN(Cc2nc3ccccc3[nH]2)C(=O)COc2ccccc2)cc1)C(=O)O)OCc1ccccc1 [Example 5-19]
10,0.3,CC(=O)N(CCc1nc2ccccc2[nH]1)Cc1ccc(C(=O)NCC(NC(=O)OCc2ccccc2)C(=O)O)cc1 (centres unmarked) [Example 5-71]
11,0.5,COCC(=O)N(CCc1nc2ccccc2[nH]1)Cc1ccc(C(=O)NCC(NC(=O)OCc2ccccc2)C(=O)O)cc1 (centres unmarked) [Example 5-72]
12,421,CC(C)(C)NC(=O)N(Cc1ccc(C(=O)NC[C@H](NC(=O)OCc2ccccc2)C(=O)O)cc1)Cc1nc2ccccc2[nH]1 [Example 5-34]
13,49,O=C(N[C@@H](CNC(=O)c1ccc(CN(Cc2nc3ccccc3[nH]2)C(=O)Nc2ccc(-c3ccccc3)cc2)cc1)C(=O)O)OCc1ccccc1 [Example 5-38]
14,91,CCOCC(=O)N(Cc1ccc(C(=O)NC[C@H](NC(=O)OCc2ccccc2)C(=O)O)cc1)Cc1nc2ccccc2[nH]1 [Example 5-26]
15,413,CCOC(=O)CCNC(=O)N(Cc1ccc(C(=O)NC[C@H](NC(=O)OCc2ccccc2)C(=O)O)cc1)Cc1nc2ccccc2[nH]1 [Example 5-54]
16,65,O=C(N[C@H](CNC(=O)c1ccc(CN(Cc2nc3ccccc3[nH]2)C(=O)CCc2ccccc2)cc1)C(=O)O)OCc1ccccc1 [Example 5-59]
17,1252,CCOC(=O)c1ccc(NC(=O)N(Cc2ccc(C(=O)NC[C@H](NC(=O)OCc3ccccc3)C(=O)O)cc2)Cc2nc3ccccc3[nH]2)cc1 [Example 5-47]
18,805,CCOC(=O)[C@H](C)NC(=O)N(Cc1ccc(C(=O)NC[C@H](NC(=O)OCc2ccccc2)C(=O)O)cc1)Cc1nc2ccccc2[nH]1 [Example 5-50]
19,14,CN(C)CC(=O)N(Cc1ccc(C(=O)NC[C@H](NC(=O)OCc2ccccc2)C(=O)O)cc1)Cc1nc2ccccc2[nH]1 [Example 5-24]
20,151,CCOc1ccc(NC(=O)N(Cc2ccc(C(=O)NC[C@H](NC(=O)OCc3ccccc3)C(=O)O)cc2)Cc2nc3ccccc3[nH]2)cc1 [Example 5-32]
